The source of these data is article PMC12921516 (ACS Bio & Med Chem Au, 2025).

One assay concerns the target T1, hPTP1B1–400 (Homo sapiens, UniProt P18031).
T1 construct: h PTP1B 1–400 IC 50 (μM ± S.D); made in house
T1 sequence (P18031 1-400): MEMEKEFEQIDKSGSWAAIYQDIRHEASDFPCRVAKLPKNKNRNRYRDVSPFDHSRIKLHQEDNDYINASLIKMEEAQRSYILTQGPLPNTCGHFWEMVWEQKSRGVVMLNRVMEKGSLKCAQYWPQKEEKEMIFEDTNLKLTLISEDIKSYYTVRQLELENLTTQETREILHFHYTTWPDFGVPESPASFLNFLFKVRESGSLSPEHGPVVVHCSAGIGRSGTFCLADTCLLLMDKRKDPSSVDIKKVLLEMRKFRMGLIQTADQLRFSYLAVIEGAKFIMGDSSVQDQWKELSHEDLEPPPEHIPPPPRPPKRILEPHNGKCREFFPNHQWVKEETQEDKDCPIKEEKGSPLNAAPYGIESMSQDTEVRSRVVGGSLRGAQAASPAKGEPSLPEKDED
Kind of assay: PTP1B inhibition, pNPP hydrolysis, long form. The assay is classed as biochemical. As to conditions: pNPP substrate, 15 min 37 °C, pH 6.8; ± S.D. On the procedure: The inhibitory activity of PTP1B was assessed using the long form of the PTP1B enzyme (hPTP1B1–400). This enzyme comprises a highly conserved N-terminal catalytic domain, known as the PTP domain (PTP1B1–300), in addition to an intrinsically disordered regulatory domain (PTP1B301–400).
The IC50 values obtained from these tests are detailed in Table .
Aliquots of 0–10 μL of the test compounds (triplicate) were taken and incubated for 15 min at 37 °C with 85 μL of Tris buffer solution (50 mM, pH 6.8) containing PTP1B enzyme and 5 μL of p-nitrophenyl phosphate substrate (pNPP, 10 mM). The absorbance of the hydrolysis product, p-nitrophenol (pNP), was measured at 405 nm using a 96-microplate absorbance reader (Accuris SmartReader 96). The inhibitory activity was determined according to eq . %enzyme=(A405b/A405c)×100 1 Where: % enzyme is the percentage of inhibition for PTP1B or TCPTP
The IC50 was calculated using regression analysis, eq : %inhibition=A100/1+(I/IC50)^s 2 Where: A100: Maximum inhibition

Assay [1] has as its system STZ-induced diabetic rats. As to conditions: earlier study of the group; cited from earlier work.
The next assay concerns HepG2 cells. Kind of assay: Western blotting, HepG2 normal model. The settings on record: 24 h. It counts as cell-based, human. As to the method: (§1) HepG2 cells were obtained directly from ATCC (HB-8065) and cultured in DMEM with low glucose, supplemented with fetal bovine serum, 100 U/mL penicillin G, and […] streptomycin. The media was freshly prepared and sterilized by filtration. Cells were maintained with a maximum of 10 passages before being discarded. For cell counting, the cells were washed twice with phosphate-buffered saline (PBS), trypsinized, and counted using a Neubauer chamber. For the insulin-resistant model, 75,000 cells per well were seeded in 6-well plates at 37 °C in 5% CO2 and cultured for 72 h. Subsequently, insulin (0.1 μM) was added to induce insulin resistance for 24 h. After this period, inhibitors were incubated for 24 h, followed by a final 30 min insulin stimulation (0.1 μM) before protein extraction. For the normal model, 75,000 cells per well were seeded in 6-well plates at 37 °C in 5% CO2 and cultured for 96 h. After that, the cells were incubated with the inhibitors for 24 h, followed by protein extraction.
(§2) Treated cells were washed twice with 1 mL of PBS, and proteins were extracted using 300 μL of a buffer solution containing 10% sodium deoxycholate in 10% TEAB, supplemented with a protease and phosphatase inhibitor cocktail. The extracts were heated at 80 °C for 5 min and dissociated by repeated passages through an insulin syringe. The cell extracts were centrifuged at 15,000 rpm for 15 min at 4 °C, and the supernatant was collected. Protein quantification was performed using the bicinchoninic acid assay, and aliquots were prepared for Western blotting. SDS-PAGE was conducted, and proteins were transferred onto a nitrocellulose membrane. The membrane was blocked with 10% skim milk in TBST for 1 h and incubated overnight with primary antibodies (1:400 dilution). Secondary antibodies conjugated to horseradish peroxidase were diluted 1:2,000, and the membranes were incubated for 1 h at room temperature. Blots were visualized using the ChemiDoc MP (Bio-Rad), and densitometric analysis was performed with ImageJ (U.S. National Institutes of Health). Statistical analyses were conducted using GraphPad Prism 8.0.
compounds at 24 h of treatment. β-actin was employed as loading control. b) Densitometric analysis of western blot images
employing ImageJ analysis software. Bar graphs represent the mean ± SEM of normalized values. The control levels were set to
1. Asterisks indicate statistical significance according to the Dunn test. p* < 0.05
(§3) (1 picture or pasted object on this page, not shown here)
(A western blot detects proteins with antibodies after separation by electrophoresis.)

The subject of assay [2] is insulin-resistant HepG2 cells. The experiment in a line: Western blotting, insulin-resistant HepG2 model. The assay is classed as cell-based, human. The settings on record: 24 h. As to the method: as §1, §2
resistance model in HepG2 cells . a) Western blotting representative analysis (n=3) of PTP1B, p -AKT, p-IRS1 and p-STAT3 levels
of HepG2 cells treated with the compounds at 24 h of treatment. β-actin was employed as loading control. b) Densitometric
analysis of western blot images employing ImageJ analysis software. Bar graphs represent the mean ± SEM of normalized values.
The control levels were set to 1. Asterisks indicate statistical significance according to the Dunn test. p* < 0.05.
as §3

Assay [3] has as its system STZ-induced diabetic CD-1 mice. The experiment in a line: Insulin tolerance test (ITT). The settings on record: 45 mg/kg, insulin 0.75 IU after 30 min. It counts as in vivo. As to the method: The studies were carried out on compounds 4b, 4g, and 5g using both normoglycemic CD1 mice and a mouse model of noninsulin-dependent diabetes mellitus (NIDDM). An oral glucose tolerance test (OGTT) was conducted on the normoglycemic mice to evaluate the hypoglycemic activity of the compounds, while an insulin tolerance test (ITT) was performed on hyperglycemic CD1 mice to assess the compounds' capacity to enhance insulin sensitivity in streptozotocin-induced diabetic mice. Pioglitazone and GA were included as positive controls. […] Healthy six-week-old male CD-1 mice, weighing between 30 and 40 g, were maintained at a temperature of 25 ± 2 °C, under a 12-h light/dark cycle and 45-65% humidity throughout the experimental period. The mice were provided with a rodent pelleted diet (Harlan Laboratories, Indianapolis, USA) and had access to water ad libitum. Sixteen hours before the experiment, all mice were fasted but still had free access to water. All animal procedures were conducted in accordance with the Mexican Federal Regulations for Animal Experimentation and Care (SAGARPA, NOM-062-ZOO-1999, Mexico) and received approval from the Institutional Animal Care and Use Committee, following guidelines outlined in the US National Institutes of Health publication (No. 85-23, revised 1985). Streptozotocin (STZ) was dissolved in citrate buffer (pH 4.5), while nicotinamide was dissolved in a normal physiological saline solution. The noninsulin-dependent diabetes (NIDD) mouse model was induced in overnight-fasted mice through a single intraperitoneal injection of STZ (100 mg/kg). Nicotinamide was administered 15 min prior, at a dose of 20 mg/kg via intraperitoneal injection. […] Roche). […] Animals were categorized into five groups, each consisting of four mice (n = 4). The experimental groups received an oral suspension of compounds 4b, 4g, and 5g, prepared in a 10% Tween 20/water solution, at a dosage of 50 mg/kg body weight. A control group was treated with only the 10% Tween 20 solution. The final group was administered pioglitazone at a dose of 45 mg/kg, which is recognized as a reference drug for insulin sensitization. To evaluate glucose levels, blood samples were collected from the tails of the mice at 0, 30, 60, 90, and 120 min after the administration of the vehicle, test compound, or drug. Blood glucose concentration was measured using a commercial glucometer (Accu-Chek, Performa; Roche) and the enzymatic glucose dehydrogenase method. The percentage variation in glycemia was calculated by comparing the selected postadministration glycemia (G x ) with the initial value (G0) using the following formula: %[…]=[(Gx-G0)/G0]×100 where G0 represents the initial glycemia values and Gx indicates the glycemia values at +30, + 60, + 90, and +120 min, respectively. To evaluate the ability of GA derivatives to enhance insulin sensitivity in STZ-induced diabetic CD-1 mice, compounds 4b, 4g, and 5g were tested. Glycyrrhetinic acid (GA) and Pioglitazone served as positive controls. The GA derivatives and the positive controls were administered to the diabetic animals, followed by the administration of human rapid-acting insulin (0.75 IU) after 30 min. Subsequently, glucose levels were measured every 15 min.

A further assay concerns normoglycemic CD1 mice. The experiment in a line: Oral glucose tolerance test (OGTT). The assay is classed as in vivo. The settings on record: 45 mg/kg, glucose 2 g/kg. On the procedure: The studies were carried out on compounds 4b, 4g, and 5g using both normoglycemic CD1 mice and a mouse model of noninsulin-dependent diabetes mellitus (NIDDM). An oral glucose tolerance test (OGTT) was conducted on the normoglycemic mice to evaluate the hypoglycemic activity of the compounds, while an insulin tolerance test (ITT) was performed on hyperglycemic CD1 mice to assess the compounds’ capacity to enhance insulin sensitivity in streptozotocin-induced diabetic mice. Pioglitazone and GA were included as positive controls.
Healthy six-week-old male CD-1 mice, weighing between 30 and 40 g, were maintained at a temperature of 25 ± 2 °C, under a 12-h light/dark cycle and 45–65% humidity throughout the experimental period. The mice were provided with a rodent pelleted diet (Harlan Laboratories, Indianapolis, USA) and had access to water ad libitum. Sixteen hours before the experiment, all mice were fasted but still had free access to water. All animal procedures were conducted in accordance with the Mexican Federal Regulations for Animal Experimentation and Care (SAGARPA, NOM-062-ZOO-1999, Mexico) and received approval from the Institutional Animal Care and Use Committee, following guidelines outlined in the US National Institutes of Health publication (No. 85–23, revised 1985).
Animals were categorized into five groups, each consisting of four mice (n = 4). The experimental groups received an oral suspension of compounds 4b, 4g, and 5g, prepared in a 10% Tween 20/water solution, at a dosage of 50 mg/kg body weight. A control group was treated with only the 10% Tween 20 solution. The final group was administered pioglitazone at a dose of 45 mg/kg, which is recognized as a reference drug for insulin sensitization. To evaluate glucose levels, blood samples were collected from the tails of the mice at 0, 30, 60, 90, and 120 min after the administration of the vehicle, test compound, or drug. Blood glucose concentration was measured using a commercial glucometer (Accu-Chek, Performa; Roche) and the enzymatic glucose dehydrogenase method. The percentage variation in glycemia was calculated by comparing the selected postadministration glycemia (G x ) with the initial value (G0) using the following formula: %variationofglycemia=[(Gx−G0)/G0]×100 where G0 represents the initial glycemia values and Gx indicates the glycemia values at +30, + 60, + 90, and +120 min, respectively.
To determine the hypoglycemic effect of the compounds on nondiabetic animals, the compounds 4b, 4g, and 5g were administered intragastrically. Pioglitazone was used as a positive control. After 30 min, five mice/group (CD-1) were subjected to OGTT. The test was performed using glucose (2 g/kg) as substrate.

As for `Cc1ccc(-n2ncc3c2C(C)(C)[C@@H]2CC[C@]4(C)[C@H](C(=O)C=C5[C@@H]6C[C@@](C)(C(=O)O)CC[C@]6(C)CC[C@]54C)[C@@]2(C)C3)cc1` [FC-122, reference compound], on hPTP1B1–400, the IC50 (in general, the midpoint of a concentration-inhibition curve) is 2140 ± 150 nM. Further, the antihyperglycemic effects result in assay [1] is “superior antihyperglycemic effects compared to glibenclamide and acarbose, but did not outperform pioglitazone”.

Regarding `CN(C)C(=N)N=C(N)N` [Metformin], the “AKT phosphorylation (p-AKT) levels” value (in the assay on HepG2 cells; in assay [2]) was “notable increase” throughout. Further, the PTP1B levels entry with HepG2 cells is listed as “neither metformin, ursolic acid, nor the GA derivatives significantly reduced PTP1B levels”; in assay [2], “neither metformin, ursolic acid, nor the GA derivatives significantly reduced PTP1B levels”.

For `CCc1ccc(CCOc2ccc(CC3SC(=O)NC3=O)cc2)nc1` (centres unmarked) [Pioglitazone, reference compound], the “glycemia variation in ITT” value in assay [3] is “markedly decrease glycemia variation”. Besides, the “hypoglycemic effect in OGTT” value with normoglycemic CD1 mice was “the most significant reduction in the hyperglycemic peak”.
